Results from patent US12600728B2, “Interleukin-17 inhibitors” (priority 2020, dated 2026).
Read-outs that look alike come from different tables or passages of the source.

Experiments:
[1] = target: recombinant human IL-17AA (Homo sapiens, UniProt Q16552); experiment: IL-6 release from NHDF cells, IL-17AA plus TNF-α stimulation; type: cell-based; details: 24 hours, IL-6 by ELISA
Outline: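 IL-17-specific IL-6 release from NHDF cells adhered overnight; compounds pre-incubated 30 min at room temperature with human IL-17AA plus TNF-α, then 24 h on cells at 37° C. Final DMSO 0.1% or plasma 20%; IL-6 by ELISA (450 nm). TNF-α-only IL-6 subtracted before IC50 fit.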

[2] = target: biotinylated human IL-17A / AF647-labeled human IL-17RA (Homo sapiens, UniProt Q16552); experiment: Human IL-17A×IL-17RA TR-FRET assay; type: binding
Sequence of biotinylated human IL-17A / AF647-labeled human IL-17RA (Q16552 24-155): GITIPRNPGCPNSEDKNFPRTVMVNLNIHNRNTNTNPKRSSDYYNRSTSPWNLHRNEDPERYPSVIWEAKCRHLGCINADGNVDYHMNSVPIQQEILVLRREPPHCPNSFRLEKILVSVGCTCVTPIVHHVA
Outline: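 Compounds tested in duplicate at each concentration; neutral controls contain all components with DMSO in place of compound.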

[3] = NHDF cells, IL-17AA 30 pM + TNF-α 6 pM, read-out: IL17AA + TNF IC50 IL-6
[4] = TR-FRET, 5 nM IL-17A, 30 nM IL-17RA, read-out: IL17AA FRET/ IL17Rawt IC50
[5] = NHDF cells, IL-17AA 30 pM + TNF-α 6 pM, reference examples (pyridines), read-out: IL 17AA + TNF IC50 IL-6
[6] = TR-FRET, 5 nM IL-17A, 30 nM IL-17RA, reference examples (pyridines), read-out: IL17AA FRET/ IL17RAwt IC50
[7] = NHDF cells, IL-17AA 30 pM plus TNF-α 6 pM, read-out: IL17AA + TNF IC50 IL-6
[8] = TR-FRET, biotinylated human IL-17A 5 nM, AF647-labeled human IL-17RA 30 nM, read-out: IL17AA FRET/ IL17Rawt IC50

Sequence of recombinant human IL-17AA (Q16552 24-155): as above

Cc1c(-c2ccc(NC(=O)[C@@H](NC(=O)c3ccnn3C)C3CCCCC3)cc2)c(C(C)C)cc[n+]1[O-] [Example 224, (S)-3-(4-(2-cyclohexyl-2-(1-methyl-1H-pyrazole-5-carboxamido)acetamido)phenyl)-4-isopropyl-2-methylpyridine 1-oxide]
IC50 [1, 3]: 0.108 µM | IC50 [2, 4]: 2.19 µM

Cc1nocc1C(=O)NC(C(=O)Nc1ccc(-c2c(Cl)cc[n+]([O-])c2C)cc1)C1CC2CC2C1 (single isomer, unassigned) [Example 198]
IC50 [1, 3]: 0.094 µM | IC50 [2, 4]: 0.222 µM

Cc1ccnc(C)c1-c1ccc(NC(=O)[C@@H](NC(=O)c2ccnn2C)[C@@H]2CC=C(F)CC2)cc1 [compound 144, N-((S)-2-((4-(2,4-dimethylpyridin-3-yl)phenyl)amino)-1-((S)-4-fluorocyclohex-3-en-1-yl)-2-oxoethyl)-1-methyl-1H-pyrazole-5-carboxamide, reference compound]
IC50 [1, 5]: 0.715 µM | IC50 [2, 6]: 4.18 µM

Cc1c(-c2ccc(NC(=O)[C@@H](NC(=O)c3ccnn3C)C3CCCCC3)cc2F)cc(Cl)c[n+]1[O-] [Example 92, (S)-5-chloro-3-(4-(2-cyclohexyl-2-(1-methyl-1H-pyrazole-5-carboxamido)acetamido)-2-fluorophenyl)-2-methylpyridine 1-oxide]
IC50 [1, 7]: 0.028 µM | IC50 [2, 8]: 0.372 µM

Cc1c(-c2ccc(NC(=O)[C@@H](NC(=O)c3ccnn3C)C3CCCCC3)cc2)cc(CO)c[n+]1[O-] [Example 115, (S)-3-(4-(2-cyclohexyl-2-(1-methyl-1H-pyrazole-5-carboxamido)acetamido)phenyl)-5-(hydroxymethyl)-2-methylpyridine 1-oxide]
IC50 [1, 7]: 0.201 µM | IC50 [2, 8]: 1.38 µM

Cc1cc[n+]([O-])c(C)c1-c1ccc(NC(=O)C(NC(=O)c2ccc3n2CCNC3)C2CC3CC3C2)cc1 [Example 201, 3-(4-((S)-2-((1R,3r,5S)-bicyclo[3.1.0]hexan-3-yl)-2-(1,2,3,4-tetrahydropyrrolo[1,2-a]pyrazine-6-carboxamido)acetamido)phenyl)-2,4-dimethylpyridine 1-oxide]
IC50 [1, 3]: 0.061 µM | IC50 [2, 4]: 0.252 µM

Cc1c(-c2ccc(NC(=O)[C@@H](NC(=O)c3ccnn3C)C3CCCCC3)cc2)c(C(F)(F)F)cc[n+]1[O-] [Example 67, (S)-3-(4-(2-cyclohexyl-2-(1-methyl-1H-pyrazole-5-carboxamido)acetamido)phenyl)-2-methyl-4-(trifluoromethyl)pyridine 1-oxide]
IC50 [1, 7]: 0.015 µM | IC50 [2, 8]: 0.124 µM

CC(=O)N1CCn2c(ccc2C(=O)N[C@H](C(=O)Nc2ccc(-c3c(C)cc[n+]([O-])c3C)cc2F)C2CCCCCC2)C1 [Example 195, (S)-3-(4-(2-(2-acetyl-1,2,3,4-tetrahydropyrrolo[1,2-a]pyrazine-6-carboxamido)-2-cycloheptylacetamido)-3-fluorophenyl)-2,4-dimethylpyridine 1-oxide]
IC50 [1, 3]: 0.0285 µM | IC50 [2, 4]: 0.178 µM

Cc1cc[n+]([O-])c(C)c1-c1ccc(NC(=O)[C@@H](NC(=O)c2ccn3c2CN(C)CC3)C2CCCCCC2)cc1 [Example 119, (S)-3-(4-(2-cycloheptyl-2-(2-methyl-1,2,3,4-tetrahydropyrrolo[1,2-a]pyrazine-8-carboxamido)acetamido)phenyl)-2,4-dimethylpyridine 1-oxide]
IC50 [1, 7]: 0.015 µM | IC50 [2, 8]: 0.13 µM

Cc1nocc1C(=O)NC(C(=O)Nc1ccc(-c2c(Cl)cc[n+]([O-])c2C)cc1)C1CC2CC2C1 (stereo not shown) [Example 71, 3-(4-(2-(bicyclo[3.1.0]hexan-3-yl)-2-(3-methylisoxazole-4-carboxamido)acetamido)phenyl)-4-chloro-2-methylpyridine 1-oxide]
IC50 [1, 7]: 0.035 µM | IC50 [2, 8]: 0.086 µM

Cc1c(-c2c(F)cc(NC(=O)[C@@H](NC(=O)c3ccnn3C)C3CCCCC3)cc2F)c(Cl)cc[n+]1[O-] [Example 61, (S)-4-chloro-3-(4-(2-cyclohexyl-2-(1-methyl-1H-pyrazole-5-carboxamido)acetamido)-2,6-difluorophenyl)-2-methylpyridine 1-oxide]
IC50 [1, 7]: 0.016 µM | IC50 [2, 8]: 0.018 µM

Cc1cc[n+]([O-])c(C)c1-c1ccc(NC(=O)[C@@H](NC(=O)c2ccnn2C)C2CCCCCC2)cc1 [Example 41, (S)-3-(4-(2-cycloheptyl-2-(1-methyl-1H-pyrazole-5-carboxamido)acetamido)phenyl)-2,4-dimethylpyridine 1-oxide]
IC50 [1, 7]: 0.009 µM | IC50 [2, 8]: 0.024 µM

Cc1c[n+]([O-])cc(C)c1-c1ccc(NC(=O)[C@@H](NC(=O)c2ccnn2C)[C@H]2CCc3ccccc3C2)cc1 [Example 103, 3,5-dimethyl-4-(4-((S)-2-(1-methyl-1H-pyrazole-5-carboxamido)-2-((S)-1,2,3,4-tetrahydronaphthalen-2-yl)acetamido)phenyl)pyridine 1-oxide]
IC50 [1, 7]: 0.045 µM | IC50 [2, 8]: 0.072 µM

Cc1cc[n+]([O-])c(C)c1-c1ccc(NC(=O)[C@H](Cc2ccccc2)NC(=O)c2ccnn2C)cc1 [Example 75, (S)-2,4-dimethyl-3-(4-(2-(1-methyl-1H-pyrazole-5-carboxamido)-3-phenylpropanamido)phenyl)pyridine 1-oxide]
IC50 [1, 7]: > 10 µM | IC50 [2, 8]: 2.64 µM

Cc1cc[n+]([O-])c(C)c1-c1ccc(NC(=O)[C@@H](NC(=O)c2ccnn2C(C)C)C2CCCCC2)cc1F [Example 96, 3-(4-((S)-2-cyclohexyl-2-(1-isopropyl-1H-pyrazole-5-carboxamido)acetamido)-2-fluorophenyl)-2,4-dimethylpyridine 1-oxide]
IC50 [1, 7]: 0.007 µM | IC50 [2, 8]: 0.07 µM

Cc1cc[n+]([O-])c(C)c1-c1ccc(NC(=O)[C@@H](NC(=O)c2conc2C)C2CCCCCC2)nc1 [Example 44, (S)-6′-(2-cycloheptyl-2-(3-methylisoxazole-4-carboxamido)acetamido)-2,4-dimethyl-[3,3′-bipyridine] 1-oxide]
IC50 [1, 7]: 0.018 µM | IC50 [2, 8]: 0.034 µM

Cc1ccnc(C)c1-c1ccc(NC(=O)[C@@H](NC(=O)c2ccnn2C)[C@H]2CCCc3ccccc32)cc1 [compound 136, N—((S)-2-((4-(2,4-dimethylpyridin-3-yl)phenyl)amino)-2-oxo-1-((S)-1,2,3,4-tetrahydronaphthalen-1-yl)ethyl)-1-methyl-1H-pyrazole-5-carboxamide, reference compound]
IC50 [1, 5]: 0.05 µM | IC50 [2, 6]: 0.117 µM

Cc1c(-c2ccc(NC(=O)[C@@H](NC(=O)c3ccnn3C)C3CCCCC3)cc2F)c(Cl)cc[n+]1[O-] (single isomer, unassigned) [Example 2b]
IC50 [1, 7]: 0.014 µM | IC50 [2, 8]: 0.017 µM

Cc1c(-c2ccc(NC(=O)[C@@H](NC(=O)c3ccnn3C)C3CCC(F)(F)CC3)cc2F)cc(Cl)c[n+]1[O-] [Example 174, (S)-5-chloro-3-(4-(2-(4,4-difluorocyclohexyl)-2-(1-methyl-1H-pyrazole-5-carboxamido)acetamido)-2-fluorophenyl)-2-methylpyridine 1-oxide]
IC50 ([1]; IL17AA + TNF IC50 IL-6, NHDF cells, IL-17AA 30 pM + TNF-α 6 pM): 0.286 µM | IC50 ([2]; IL17AA FRET/ IL17Rawt IC50, TR-FRET, 5 nM IL-17A, 30 nM IL-17RA): 0.683 µM

Cc1cc[n+]([O-])c(C)c1-c1ccc(NC(=O)[C@@H](NC(=O)c2ccc3n2CCN(C)C3)C(C)c2ccccc2Cl)cc1 (stereo partly drawn) [Example 213, 3-(4-((2S)-3-(2-chlorophenyl)-2-(2-methyl-1,2,3,4-tetrahydropyrrolo[1,2-a]pyrazine-6-carboxamido)butanamido)phenyl)-2,4-dimethylpyridine 1-oxide]
IC50 [1, 3]: 2.58 µM | IC50 [2, 4]: 0.533 µM
